Data: US20120060834A1, “PHARMACEUTICAL PREPARATION TO BE ADMINISTERED INTO RESPIRATORY ORGANS FOR TREATING OR PREVENTING INFLAMMATORY RESPIRATORY DISEASES, AND METHOD FOR TREATING OR PREVENTING SUCH DISEASES” (Postech Academy-Industry Foundation, priority 2009, published 2012)

Tests used:
[1] = system: asthma animal model exhibiting TH1+TH17 immune responses; assay: Therapeutic efficacy of WKYMVm upon intranasal administration in asthma mouse model; assay type: in vivo, BALB/c mice
Procedure: (§1) This sensitization was performed on Day 0, 1, 2 and 7. […] Meanwhile, the mice of the positive control were intraperitoneally administered with the same dose of phosphate-buffered saline (PBS). For a negative control, the sensitization on Day 0, 1, 2 and 7 and the challenge on Day 14, 15, 21, and 22 were conducted in the same manner as in the positive control, except that PBS was used instead of the allergen.
Twenty four hours after the final administration of the allergen (Day 23), the mice were examined for bronchial hypersensitivity to methacholine. In this context, the mice were placed in a chamber and allowed to inhale PBS for 3 min with the aid of a nebulizer, followed by measuring penh (enhanced pause) values for 3 min by means of non-invasive whole body plethysmography (Allmedicus, Korea). Likewise, the mice were allowed to inhale 6.25, 12.5, 25 and 50 mg/ml methacholine PBS sequentially, after which penh values for each concentration were measured. A mean of the penh values measured for 3 min was used as an index of airway obstruction.
(§2) Pulmonary inflammation was examined 6 hours (Day 22) and 48 hours (Day 24) after the final administration of the allergen. On Days 22 and 24, after mice were anesthetized by intraperitoneally injecting a mixture of ketamine and xylazine thereto, they were subjected to thoracotomy to expose the trachea into which a catheter was then inserted. After suturing the mice, 1 mL of germ-free PBS was infused twice to wash the airway to give bronchoalveolar lavage fluid (hereinafter referred to as “'BAL fluid”). For analyzing T-lymphocytes in lung tissues, the lung was excised and cells were extracted from local lymph nodes.
(§3) Following centrifugation of the BAL fluid at 3000 rpm and at 4° C. for 10 min, the cell pellet thus formed was suspended in PBS, and rolled on slide using a cytospin and stained with Diff
(§4) Quick. More than 300 inflammatory cells were observed under an optical microscope with […] magnification to determine cell counts by cell types, that is, macrophage, lymphocyte, neutrophil, and eosinophil. In the BAL fluid, the cytokines involved in Th1-mediated inflammation, such as gamma interferon, interferon-g-inducible protein 10 (IP-10), and IL-12, the cytokines involved in Th2-mediated inflammation, such as interleukin IL-4 and IL-13, the cytokines involved in Th17-mediated inflammation, such as IL-17, TNF-α and IL-6, and the cytokines involved in Th2- and Th17-mediated inflammation, such as TGF-13, were quantified using ELISA.
(§5) The excised pulmonary tissue was treated with collagenase type IV (Sigma) to separate cells therefrom. The cells were surface stained with anti-CD3, anti-CD4, and anti-CD8 antibodies (BD Pharmingen), all being conjugated with a fluorescent and the membrane was perforated with Triton, followed by intracellular cytokine staining with anti-IFN-γ, anti-IL-17, anti-IL-10 and anti-IL-4 antibodies. Types of the T lymphocytes introduced into the lung were analyzed using the fluorescence activated cell scanner FACSCalibur (Becton Dickinson).
(§6) After the cells extracted from the lymph nodes were incubated for 72 hours in PBS containing 100 μg/ml OVA, gamma interferon, IL-17 and IL-4, which are the cytokines involved in Th1-, Th17- and Th2-mediated inflammation, were quantified using ELISA.
The assay was performed in the same manner as in the Comparative Example, except that WKYMVm was administered intranasally instead of intraperitoneally. […] The other procedure was performed in the same manner as in the Comparative Example.

[2] = system: asthma animal model exhibiting TH1+TH17 immune responses; assay: Therapeutic efficacy of WKYMVm upon systemic administration by intraperitoneal injection in asthma mouse model; assay type: in vivo, BALB/c mice
Procedure: as §1, with “allergen. […]” for “allergen.”
as §2, §3, §4, §5, §6

[3] = molecular target: T1, FPR (formyl peptide receptor) (Homo sapiens, UniProt P21462); details: cited from earlier work
T1 sequence (P21462 1-350): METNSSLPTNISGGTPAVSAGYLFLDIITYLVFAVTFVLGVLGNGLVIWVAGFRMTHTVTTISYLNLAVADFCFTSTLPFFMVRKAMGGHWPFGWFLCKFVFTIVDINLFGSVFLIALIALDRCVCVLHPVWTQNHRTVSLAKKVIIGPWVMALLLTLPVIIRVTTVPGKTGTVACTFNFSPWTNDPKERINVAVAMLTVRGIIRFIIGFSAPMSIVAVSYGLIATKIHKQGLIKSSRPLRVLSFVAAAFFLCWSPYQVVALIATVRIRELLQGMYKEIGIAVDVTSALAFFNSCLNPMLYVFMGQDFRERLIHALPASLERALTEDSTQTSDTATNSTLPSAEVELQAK

Substance: Trp-Lys-Tyr-Met-Val-D-Met-CONH2 [WKYMVm]
- suppressive effects on bronchial hypersensitivity and pulmonary inflammation ([1]; direct administration via the nasal cavity compared with systemic administration): higher suppressive effects
- inflammatory cell count of BAL fluid ([1]; intranasal 200 μg/kg, Day 22, 6 hours after allergen, vs sham (positive control), FIG. 8): no differences
- release of gamma interferon by immune cells separated from local lymph nodes (in vitro) ([1]; intranasal 200 μg/kg, Day 22, vs positive control, FIG. 9a): higher level
- gamma interferon-expressing CD4+ T cells from pulmonary tissue (count) ([1]; intranasal 200 μg/kg, Day 22, vs positive control, FIG. 9b): higher
- level of gamma interferon in BAL fluid ([1]; intranasal 200 μg/kg, Day 22, vs positive control, FIG. 9c): reduced
- IL-17 released by local lymph node immune cells stimulated in vitro with allergen ([1]; intranasal 200 μg/kg, Day 22, vs positive control, FIG. 10): higher amount
- IL-17-expressing CD4+ T cells from pulmonary tissues (count) ([1]; intranasal 200 μg/kg, Day 22, vs positive control, FIG. 10b): more numerous
- level of IL-17 in BAL fluid ([1]; intranasal 200 μg/kg, Day 22, vs positive control, FIG. 10c): reduced
- expression of Th2 cytokines in T cells of pulmonary tissues ([1]; intranasal 200 μg/kg, Day 22, vs positive control, FIG. 11a): reduced
- expression level of IL-10 in T cells of pulmonary tissues ([1]; intranasal 200 μg/kg, Day 22, vs positive control, FIG. 11b): increased
- release of IP-10 in BAL fluid ([1]; intranasal 200 μg/kg, Day 22, vs positive control, FIG. 12a): reduced
- release of IL-12p40 in BAL fluid ([1]; intranasal 200 μg/kg, Day 22, vs positive control, FIG. 12b): reduced
- release of TNF-α in BAL fluid ([1]; intranasal 200 μg/kg, Day 22, vs positive control, FIG. 12c): lower levels
- level of MCP-1 in BAL fluid ([1]; intranasal 200 μg/kg, Day 22, vs positive control, FIG. 12e): lower levels
- level of MIP-1a in BAL fluid ([1]; intranasal 200 μg/kg, Day 22, vs positive control, FIG. 12f): lower levels
- release of IL-1β in BAL fluid ([1]; intranasal 200 μg/kg, Day 22, vs positive control, FIG. 12d): lower levels
- release of IL-17 into BAL fluid ([1]; intranasal 200 μg/kg, Day 24, vs positive control, FIG. 15): increased
- release of TGF-β from inflammatory cells (BAL fluid) ([1]; intranasal 200 μg/kg, Day 24, vs positive control, FIG. 15b): significantly reduced
- level of IL-12p40 in BAL fluid ([1]; intranasal 200 μg/kg, Day 24, vs positive control, FIG. 16a): higher levels
- level of IP-10 in BAL fluid ([1]; intranasal 200 μg/kg, Day 24, vs positive control, FIG. 16b): higher levels
- inflammatory cell count in BAL fluid ([2]; i.p. 4 mg/kg, Day 22, 6 hours after final allergen, vs sham (positive control), FIG. 2): increase
- release of gamma interferon by inflammatory cells separated from pulmonary tissue ([2]; i.p. 4 mg/kg, Day 22, FIG. 3a): increased
- level of IP-10 in BAL fluid ([2]; i.p. 4 mg/kg, Day 22, FIG. 3b): increased levels
- level of IL-12p40 in BAL fluid ([2]; i.p. 4 mg/kg, Day 22, FIG. 3c): increased levels
- number of IL-17-expressing CD4+ T cells from pulmonary tissues ([2]; i.p. 4 mg/kg, Day 22, FIG. 4a): increase in number
- level of IL-17 released to BAL fluid ([2]; i.p. 4 mg/kg, Day 22, FIG. 4b): increase
- level of IL-6 in BAL fluid ([2]; i.p. 4 mg/kg, Day 22, FIG. 5a): increased levels
- level of TNF-α in BAL fluid ([2]; i.p. 4 mg/kg, Day 22, FIG. 5b): increased levels
- inflammatory cell count in BAL ([2]; i.p. 4 mg/kg, Day 24, 48 hours after final allergen, vs sham, FIG. 6): there was a difference
- level of IL-12p40 (ELISA) ([2]; i.p. 4 mg/kg, Day 24, vs sham, FIG. 7a): no significant differences
- level of TGF-β (ELISA) ([2]; i.p. 4 mg/kg, Day 24, vs sham, FIG. 7b): no significant differences
- pulmonary/respiratory inflammation (overall conclusion) ([2]; systemic (intraperitoneal) administration): did not ameliorate
- binding to FPR [3]: known to bind
